# Results reported in ChEMBL document CHEMBL3046017, “Design, synthesis, and docking studies of telmisartan analogs for the treatment of metabolic syndrome” (Med Chem Res, 2009).
# Activity calls are given as the source filed them. No cut-off for these calls is given here.
# Legend:
# [1] = target: T1, Peroxisome proliferator-activated receptor gamma (Homo sapiens) (UniProt P37231); test: Agonist activity at Homo sapiens (human) PPARgamma LBD expressed in African green monkey CV-1 cells co-expressing GAL4 assessed as beta-galactosidase activity at 10 uM after 24 hr by luciferase reporter gene assay relative to rosiglitazone; format: cell-based
# T1 sequence (whole entry): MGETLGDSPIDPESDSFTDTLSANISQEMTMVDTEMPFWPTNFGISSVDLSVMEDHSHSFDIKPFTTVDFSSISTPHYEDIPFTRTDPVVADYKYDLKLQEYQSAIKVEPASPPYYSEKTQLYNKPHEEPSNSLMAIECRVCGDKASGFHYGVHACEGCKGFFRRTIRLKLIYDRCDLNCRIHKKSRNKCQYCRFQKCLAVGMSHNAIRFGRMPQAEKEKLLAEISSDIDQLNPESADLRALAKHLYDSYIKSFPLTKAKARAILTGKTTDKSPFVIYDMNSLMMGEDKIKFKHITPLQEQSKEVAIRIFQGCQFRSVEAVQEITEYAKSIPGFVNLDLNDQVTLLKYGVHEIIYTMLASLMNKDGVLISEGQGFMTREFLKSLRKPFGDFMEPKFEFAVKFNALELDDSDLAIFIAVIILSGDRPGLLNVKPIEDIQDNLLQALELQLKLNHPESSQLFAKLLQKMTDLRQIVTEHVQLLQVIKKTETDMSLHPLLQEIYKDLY
# 3T3-L1 = test: Induction of adipocyte differentiation in Mus musculus (mouse) 3T3L1 cells at 1 to 5 uM; format: functional, cell-based
# [2] = target: T2, Type-1 angiotensin II receptor A (Rattus norvegicus, UniProt P25095); test: Displacement of [125I]-SI-Ang-2 from AT1 receptor in Rattus norvegicus Sprague-Dawley (rat) liver membranes after 2 hr; set-up: species or system Membrane
# T2 sequence (P25095 whole entry): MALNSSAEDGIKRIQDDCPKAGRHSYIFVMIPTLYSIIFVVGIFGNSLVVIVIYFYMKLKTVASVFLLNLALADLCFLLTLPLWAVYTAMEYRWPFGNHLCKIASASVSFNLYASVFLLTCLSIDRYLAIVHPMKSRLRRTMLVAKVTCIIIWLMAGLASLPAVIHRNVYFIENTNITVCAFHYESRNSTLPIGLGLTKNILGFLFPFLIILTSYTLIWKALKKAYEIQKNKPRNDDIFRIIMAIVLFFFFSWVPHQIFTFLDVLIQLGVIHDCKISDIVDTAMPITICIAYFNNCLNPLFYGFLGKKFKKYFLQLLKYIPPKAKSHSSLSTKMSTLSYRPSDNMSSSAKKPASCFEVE
SMILES,%max [1],Ki [2],Activity (3T3-L1)
COC(=O)c1ccccc1-c1ccc(Cn2cnc3c(C)cccc32)cc1,4.7%,> 10 µM,inactive
COC(=O)c1ccccc1-c1ccc(Cn2cnc3ccc(-c4nc5ccccc5n4C)cc32)cc1,6.3%,> 10 µM,inactive
COC(=O)c1ccc(-c2ccc(Cn3c(C)nc4ccc(-c5nc6ccccc6n5C)cc43)cc2)cc1,7.3%,> 10 µM,inactive
COC(=O)c1ccc(-c2ccc(Cn3cnc4ccc(-c5nc6ccccc6n5C)cc43)cc2)cc1,3.6%,> 10 µM,inactive
COC(=O)c1ccc(-c2ccc(Cn3cnc4ccc(-c5nc6ccccc6n5C)cc43)cc2)c(C(=O)OC)c1,5.7%,> 10 µM,inactive
Cn1c(-c2ccc3ncn(Cc4ccc(-c5ccccc5)cc4)c3c2)nc2ccccc21,5.7%,> 10 µM,inactive
COC(=O)c1ccc(-c2ccc(Cn3c(C)nc4ccc(-c5nc6ccccc6n5C)cc43)cc2)c(C(=O)OC)c1,2.8%,> 10 µM,inactive
COC(=O)c1ccccc1-c1ccc(Cn2cnc3ccccc32)cc1,1.8%,> 10 µM,inactive

# Further lines, with some results ahead:
%max [1],Ki [2],SMILES,Activity (3T3-L1)
21.2%,0.00023 µM,CCCc1nc2c(C)cc(-c3nc4ccccc4n3C)cc2n1Cc1ccc(-c2ccccc2C(=O)O)cc1 [TELMISARTAN],Active
6.8%,> 10 µM,COC(=O)c1ccccc1-c1ccc(Cn2c(C)nc3ccc(-c4nc5ccccc5n4C)cc32)cc1,inactive
8%,0.65 µM,CCCc1nc2c(C)cc(-c3nc4ccccc4n3C)cc2n1Cc1ccc(-c2ccc(C(=O)OC)cc2C(=O)OC)cc1,inactive
inactive,0.188 µM,CCCc1nc2c(C)cc(-c3nc4ccccc4n3C)cc2n1Cc1ccc(-c2ccc(C(=O)O)cc2C(=O)O)cc1,inactive
